Data from US6399561B1, “Methods and compositions for bleaching a dye in solution” (Novozymes A/S, priority 1998, dated 2002).

What was measured:
Assay type in all cases: biochemical
[1] = biological target: T1, Polyporus pinsitus laccase (Trametes villosa, UniProt Q99044); assay: Bleaching of methyl orange using rPpL and NOH-type enhancing agents (initial bleaching rate); details: rPpL solution diluted 1:200, 0.2 mM mediator, 30° C., large negative numbers = best performance
T1 construct: made in house
T1 sequence (Q99044 22-520): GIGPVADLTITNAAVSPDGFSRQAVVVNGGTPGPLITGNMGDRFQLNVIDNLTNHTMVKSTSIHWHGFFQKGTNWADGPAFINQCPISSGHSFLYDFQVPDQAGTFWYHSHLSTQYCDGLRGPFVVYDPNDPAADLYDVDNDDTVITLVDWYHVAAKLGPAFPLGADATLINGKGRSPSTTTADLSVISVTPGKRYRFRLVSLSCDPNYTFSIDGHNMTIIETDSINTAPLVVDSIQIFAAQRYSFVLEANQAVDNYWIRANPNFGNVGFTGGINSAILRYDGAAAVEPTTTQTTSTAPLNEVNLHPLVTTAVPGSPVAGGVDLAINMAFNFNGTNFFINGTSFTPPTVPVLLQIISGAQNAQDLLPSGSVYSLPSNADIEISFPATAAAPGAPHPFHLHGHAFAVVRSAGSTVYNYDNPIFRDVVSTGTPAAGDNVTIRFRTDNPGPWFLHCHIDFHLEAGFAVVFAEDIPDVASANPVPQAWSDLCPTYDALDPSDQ
Experimental: (§1) Britton-Robinson buffer is composed of:
(§2) Methyl orange (Merck, Germany)
(§3) Reactions were started by addition of enzyme. Absorbance at 464 nm was followed for 3 minutes (readings every 5 seconds) on a Cobas Fara at 30° C. Initial bleaching rates were determined from the first linear part of the progress curves.
(§4) The N—OH compounds listed above were tested as laccase mediators in bleaching of methyl orange with three recombinant laccases (rPpL, rMtL and rCcL) at various pH values. Large negative numbers represent the best performance.

[2] = tested on: Recombinant Myceliophthora thermophila laccase (rMtL); assay: Bleaching of methyl orange using rMtL and NOH-type enhancing agents (initial bleaching rate); details: rMtL solution diluted 1:300, 0.2 mM mediator, 30° C., large negative numbers = best performance
Experimental: as §1, §2, §3, §4

[3] = tested on: Recombinant Coprinus cinereus laccase (rCcL); assay: Bleaching of methyl orange using rCcL and NOH-type enhancing agents (initial bleaching rate); details: rCcL solution diluted 1:200, 0.2 mM mediator, 30° C., large negative numbers = best performance
Experimental: as §1, §2, §3, §4

CC[n+]1ccc(-c2ccc(S(=O)(=O)[O-])cc2)o1.O [2-Ethyl-5-phenylisoxazolium-4′-sulfonate, H2O]
Initial changes per minute in A464 nm of methyl orange using rPpL ([1]; pH 4): −0.017 per minute
Initial changes per minute in A464 nm of methyl orange using rPpL ([1]; pH 5): −0.017 per minute
Initial changes per minute in A464 nm of methyl orange using rPpL ([1]; pH 6): −0.006 per minute
Initial changes per minute in A464 nm of methyl orange using rPpL ([1]; pH 7): 0.001 per minute
Initial changes per minute in A464 nm of methyl orange using rMtL ([2]; pH 4): −0.012 per minute
Initial changes per minute in A464 nm of methyl orange using rMtL ([2]; pH 5): −0.004 per minute
Initial changes per minute in A464 nm of methyl orange using rMtL ([2]; pH 6): −0.002 per minute
Initial changes per minute in A464 nm of methyl orange using rMtL ([2]; pH 7): 0.000 per minute
Initial changes per minute in A464 nm of methyl orange using rCcL ([3]; pH 4): 0.005 per minute
Initial changes per minute in A464 nm of methyl orange using rCcL ([3]; pH 5): 0.000 per minute
Initial changes per minute in A464 nm of methyl orange using rCcL ([3]; pH 6): −0.006 per minute
Initial changes per minute in A464 nm of methyl orange using rCcL ([3]; pH 7): −0.004 per minute
Initial changes per minute in A464 nm of methyl orange using rCcL ([3]; pH 8): −0.001 per minute

[O-][n+]1ccc2ccccc2c1 [Iso-quinoline-N-oxide]
Initial changes per minute in A464 nm of methyl orange using rPpL ([1]; pH 4): −0.074 per minute
Initial changes per minute in A464 nm of methyl orange using rPpL ([1]; pH 5): −0.037 per minute
Initial changes per minute in A464 nm of methyl orange using rPpL ([1]; pH 6): −0.014 per minute
Initial changes per minute in A464 nm of methyl orange using rPpL ([1]; pH 7): −0.002 per minute
Initial changes per minute in A464 nm of methyl orange using rMtL ([2]; pH 4): −0.017 per minute
Initial changes per minute in A464 nm of methyl orange using rMtL ([2]; pH 5): −0.010 per minute
Initial changes per minute in A464 nm of methyl orange using rMtL ([2]; pH 6): −0.004 per minute
Initial changes per minute in A464 nm of methyl orange using rMtL ([2]; pH 7): 0.000 per minute
Initial changes per minute in A464 nm of methyl orange using rCcL ([3]; pH 4): −0.002 per minute
Initial changes per minute in A464 nm of methyl orange using rCcL ([3]; pH 5): −0.005 per minute
Initial changes per minute in A464 nm of methyl orange using rCcL ([3]; pH 6): −0.008 per minute
Initial changes per minute in A464 nm of methyl orange using rCcL ([3]; pH 7): −0.010 per minute
Initial changes per minute in A464 nm of methyl orange using rCcL ([3]; pH 8): −0.004 per minute

CS(=O)(=O)c1ccc2ccn(OC(=O)c3ccccc3)c2c1 [PFC-202, Benzoic acid[6-(methylsulphonyl)indol-1-yl]ester]
Initial changes per minute in A464 nm of methyl orange using rPpL ([1]; pH 4): −0.047 per minute
Initial changes per minute in A464 nm of methyl orange using rPpL ([1]; pH 5): −0.035 per minute
Initial changes per minute in A464 nm of methyl orange using rPpL ([1]; pH 6): −0.001 per minute
Initial changes per minute in A464 nm of methyl orange using rPpL ([1]; pH 7): 0.000 per minute
Initial changes per minute in A464 nm of methyl orange using rMtL ([2]; pH 4): −0.020 per minute
Initial changes per minute in A464 nm of methyl orange using rMtL ([2]; pH 5): −0.017 per minute
Initial changes per minute in A464 nm of methyl orange using rMtL ([2]; pH 6): 0.001 per minute
Initial changes per minute in A464 nm of methyl orange using rMtL ([2]; pH 7): 0.005 per minute
Initial changes per minute in A464 nm of methyl orange using rCcL ([3]; pH 4): −0.005 per minute
Initial changes per minute in A464 nm of methyl orange using rCcL ([3]; pH 5): −0.010 per minute
Initial changes per minute in A464 nm of methyl orange using rCcL ([3]; pH 6): −0.016 per minute
Initial changes per minute in A464 nm of methyl orange using rCcL ([3]; pH 7): 0.000 per minute
Initial changes per minute in A464 nm of methyl orange using rCcL ([3]; pH 8): 0.011 per minute

ON=C(c1ccccn1)c1ccccn1 [di-2-pyridylketone oxime]
Initial changes per minute in A464 nm of methyl orange using rPpL ([1]; pH 4): −0.124 per minute
Initial changes per minute in A464 nm of methyl orange using rPpL ([1]; pH 5): −0.107 per minute
Initial changes per minute in A464 nm of methyl orange using rPpL ([1]; pH 6): −0.053 per minute
Initial changes per minute in A464 nm of methyl orange using rPpL ([1]; pH 7): −0.005 per minute
Initial changes per minute in A464 nm of methyl orange using rMtL ([2]; pH 4): −0.026 per minute
Initial changes per minute in A464 nm of methyl orange using rMtL ([2]; pH 5): −0.010 per minute
Initial changes per minute in A464 nm of methyl orange using rMtL ([2]; pH 6): −0.001 per minute
Initial changes per minute in A464 nm of methyl orange using rMtL ([2]; pH 7): 0.001 per minute
Initial changes per minute in A464 nm of methyl orange using rCcL ([3]; pH 4): −0.004 per minute
Initial changes per minute in A464 nm of methyl orange using rCcL ([3]; pH 5): −0.006 per minute
Initial changes per minute in A464 nm of methyl orange using rCcL ([3]; pH 6): −0.008 per minute
Initial changes per minute in A464 nm of methyl orange using rCcL ([3]; pH 7): −0.006 per minute
Initial changes per minute in A464 nm of methyl orange using rCcL ([3]; pH 8): −0.001 per minute
